Calls of active or inactive are those of the source. The rule behind the calls is not given here.

Data set [1] concerns BaF3. Nature of the data set: Antiproliferative activity against mouse BaF3 cells expressing Bcr-Abl T315I mutant assessed as inhibition of cell growth at 30 uM incubated for 72 hrs by CellTiter-Glo luminescent assay. The class given is functional. Background: In ATP-based viability assays light output follows the ATP content of the culture.
In data set [2] the test system is K562. Nature of the data set: Induction of apoptosis in human K562 cells assessed as early apoptotic cells at 5 uM incubated for 48 hrs by Annexin V-FITC/PI staining based flow cytometry analysis (Rvb= 4.35%). Format: functional.
Data set [3] relates to K562. The data set can be described thus: Induction of apoptosis in human K562 cells assessed as viable cells at 10 uM incubated for 48 hrs by Annexin V-FITC/PI staining based flow cytometry analysis (Rvb=80.89%). The class given is functional. Particulars: read-out: Activity.
The target in data set [4] is Platelet-derived growth factor receptor alpha (Homo sapiens) (UniProt P16234). Nature of the data set: Inhibition of recombinant human PDGFRalpha at 10 uM for 10 mins followed by substrate addition in presence of ATP and measured after 100 mins by ADP-Glo kinase assay. The settings on record: time 110.0 min. In general terms: In ADP-Glo the light output rises with the ADP produced.
Chain of Platelet-derived growth factor receptor alpha (Homo sapiens) (P16234 whole entry): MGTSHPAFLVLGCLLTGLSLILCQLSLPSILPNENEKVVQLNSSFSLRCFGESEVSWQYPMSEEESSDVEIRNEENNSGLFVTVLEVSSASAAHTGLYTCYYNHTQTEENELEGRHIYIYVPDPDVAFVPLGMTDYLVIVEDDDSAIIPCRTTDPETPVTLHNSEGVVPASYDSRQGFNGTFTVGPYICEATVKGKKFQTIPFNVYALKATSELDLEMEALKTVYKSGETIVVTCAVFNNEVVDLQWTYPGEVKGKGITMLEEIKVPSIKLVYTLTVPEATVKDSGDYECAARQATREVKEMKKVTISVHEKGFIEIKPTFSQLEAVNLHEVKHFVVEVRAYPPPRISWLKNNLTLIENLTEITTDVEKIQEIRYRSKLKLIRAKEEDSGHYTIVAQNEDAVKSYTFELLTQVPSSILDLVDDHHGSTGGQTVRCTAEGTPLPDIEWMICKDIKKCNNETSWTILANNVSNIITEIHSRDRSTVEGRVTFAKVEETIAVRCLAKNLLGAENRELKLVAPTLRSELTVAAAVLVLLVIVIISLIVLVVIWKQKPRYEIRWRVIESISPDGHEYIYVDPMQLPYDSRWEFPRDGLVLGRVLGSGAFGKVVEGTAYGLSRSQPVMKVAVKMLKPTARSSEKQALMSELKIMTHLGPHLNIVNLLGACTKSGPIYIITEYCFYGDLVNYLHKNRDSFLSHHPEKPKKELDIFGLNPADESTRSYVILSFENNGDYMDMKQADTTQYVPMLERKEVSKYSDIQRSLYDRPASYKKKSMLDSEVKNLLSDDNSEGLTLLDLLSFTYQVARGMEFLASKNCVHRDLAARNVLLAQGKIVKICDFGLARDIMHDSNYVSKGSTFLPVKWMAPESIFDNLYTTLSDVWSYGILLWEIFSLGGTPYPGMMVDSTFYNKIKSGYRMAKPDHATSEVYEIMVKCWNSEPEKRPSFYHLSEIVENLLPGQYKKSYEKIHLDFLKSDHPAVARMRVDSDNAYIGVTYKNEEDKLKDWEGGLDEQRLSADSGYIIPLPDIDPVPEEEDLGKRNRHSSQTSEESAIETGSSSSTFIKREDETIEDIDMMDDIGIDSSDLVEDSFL

Data set [5] has as its system K562. Nature of the data set: Induction of apoptosis in human K562 cells assessed as late apoptotic cells at 5 uM incubated for 48 hrs by Annexin V-FITC/PI staining based flow cytometry analysis (Rvb= 14.66%). Format: functional. In general terms: In flow cytometry, cells or beads pass a laser one at a time.
Data set [6] has as its target BDNF/NT-3 growth factors receptor (Homo sapiens) (UniProt Q16620). Nature of the data set: Inhibition of recombinant human TRKB at 10 uM for 10 mins followed by substrate addition in presence of ATP and measured after 60 mins by HTRF assay. The settings on record: time 70.0 min.
Data set [7] has as its target Dual specificity protein kinase CLK1 (Homo sapiens) (UniProt P49759). The data set can be described thus: Inhibition of recombinant human CLK1 at 10 uM for 10 mins followed by substrate addition in presence of ATP and measured after 100 mins by ADP-Glo kinase assay. The settings on record: time 110.0 min.
Data set [8] concerns the target Dual specificity tyrosine-phosphorylation-regulated kinase 1B (Homo sapiens) (UniProt Q9Y463). The data set can be described thus: Inhibition of recombinant human DYRK1B at 10 uM for 10 mins followed by substrate addition in presence of ATP and measured after 60 mins by HTRF assay. The settings on record: time 70.0 min.
In data set [9] the test system is K562. The data set can be described thus: Induction of apoptosis in human K562 cells assessed as late apoptotic cells at 1 uM incubated for 48 hrs by Annexin V-FITC/PI staining based flow cytometry analysis (Rvb= 14.66%). Format: functional.
For data set [10], the target named is T1, Tyrosine-protein kinase ITK/TSK (Homo sapiens) (UniProt Q08881).
T1 sequence (whole entry): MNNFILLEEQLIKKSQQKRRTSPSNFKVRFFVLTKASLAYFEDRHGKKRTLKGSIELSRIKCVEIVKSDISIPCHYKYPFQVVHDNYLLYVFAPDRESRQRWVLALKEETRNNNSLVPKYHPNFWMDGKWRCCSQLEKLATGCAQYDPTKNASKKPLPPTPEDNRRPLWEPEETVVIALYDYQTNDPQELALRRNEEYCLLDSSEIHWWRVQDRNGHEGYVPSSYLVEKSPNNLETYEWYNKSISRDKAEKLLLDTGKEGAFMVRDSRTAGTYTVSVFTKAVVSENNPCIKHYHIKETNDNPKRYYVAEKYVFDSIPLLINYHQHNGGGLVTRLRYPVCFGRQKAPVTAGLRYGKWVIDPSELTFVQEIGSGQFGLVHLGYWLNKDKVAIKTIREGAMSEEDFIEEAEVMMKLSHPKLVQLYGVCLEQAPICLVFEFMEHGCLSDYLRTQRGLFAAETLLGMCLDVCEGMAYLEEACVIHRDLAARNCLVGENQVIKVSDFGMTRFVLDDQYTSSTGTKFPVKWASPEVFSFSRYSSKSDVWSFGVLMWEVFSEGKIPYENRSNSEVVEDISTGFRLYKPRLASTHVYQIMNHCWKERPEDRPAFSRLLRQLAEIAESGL
Nature of the data set: Inhibition of recombinant human ITK at 10 uM for 10 mins followed by substrate addition in presence of ATP and measured after 60 mins by HTRF assay. Particulars: time 70.0 min.

The test system of data set [11] is HEK293. The data set can be described thus: Cytotoxicity against human HEK293 cells assessed as inhibition of cell growth upto 100 uM incubated for 48 hrs by MTT assay. The class given is toxicity, cell-based. The settings on record: hek293, 48 h.
For data set [12], the target named is Vascular endothelial growth factor receptor 2 (Homo sapiens) (UniProt P35968). Nature of the data set: Inhibition of recombinant human KDR at 10 uM for 10 mins followed by substrate addition in presence of ATP and measured after 100 mins by ADP-Glo kinase assay. The settings on record: time 110.0 min.
Chain of Vascular endothelial growth factor receptor 2 (Homo sapiens) (P35968 whole entry): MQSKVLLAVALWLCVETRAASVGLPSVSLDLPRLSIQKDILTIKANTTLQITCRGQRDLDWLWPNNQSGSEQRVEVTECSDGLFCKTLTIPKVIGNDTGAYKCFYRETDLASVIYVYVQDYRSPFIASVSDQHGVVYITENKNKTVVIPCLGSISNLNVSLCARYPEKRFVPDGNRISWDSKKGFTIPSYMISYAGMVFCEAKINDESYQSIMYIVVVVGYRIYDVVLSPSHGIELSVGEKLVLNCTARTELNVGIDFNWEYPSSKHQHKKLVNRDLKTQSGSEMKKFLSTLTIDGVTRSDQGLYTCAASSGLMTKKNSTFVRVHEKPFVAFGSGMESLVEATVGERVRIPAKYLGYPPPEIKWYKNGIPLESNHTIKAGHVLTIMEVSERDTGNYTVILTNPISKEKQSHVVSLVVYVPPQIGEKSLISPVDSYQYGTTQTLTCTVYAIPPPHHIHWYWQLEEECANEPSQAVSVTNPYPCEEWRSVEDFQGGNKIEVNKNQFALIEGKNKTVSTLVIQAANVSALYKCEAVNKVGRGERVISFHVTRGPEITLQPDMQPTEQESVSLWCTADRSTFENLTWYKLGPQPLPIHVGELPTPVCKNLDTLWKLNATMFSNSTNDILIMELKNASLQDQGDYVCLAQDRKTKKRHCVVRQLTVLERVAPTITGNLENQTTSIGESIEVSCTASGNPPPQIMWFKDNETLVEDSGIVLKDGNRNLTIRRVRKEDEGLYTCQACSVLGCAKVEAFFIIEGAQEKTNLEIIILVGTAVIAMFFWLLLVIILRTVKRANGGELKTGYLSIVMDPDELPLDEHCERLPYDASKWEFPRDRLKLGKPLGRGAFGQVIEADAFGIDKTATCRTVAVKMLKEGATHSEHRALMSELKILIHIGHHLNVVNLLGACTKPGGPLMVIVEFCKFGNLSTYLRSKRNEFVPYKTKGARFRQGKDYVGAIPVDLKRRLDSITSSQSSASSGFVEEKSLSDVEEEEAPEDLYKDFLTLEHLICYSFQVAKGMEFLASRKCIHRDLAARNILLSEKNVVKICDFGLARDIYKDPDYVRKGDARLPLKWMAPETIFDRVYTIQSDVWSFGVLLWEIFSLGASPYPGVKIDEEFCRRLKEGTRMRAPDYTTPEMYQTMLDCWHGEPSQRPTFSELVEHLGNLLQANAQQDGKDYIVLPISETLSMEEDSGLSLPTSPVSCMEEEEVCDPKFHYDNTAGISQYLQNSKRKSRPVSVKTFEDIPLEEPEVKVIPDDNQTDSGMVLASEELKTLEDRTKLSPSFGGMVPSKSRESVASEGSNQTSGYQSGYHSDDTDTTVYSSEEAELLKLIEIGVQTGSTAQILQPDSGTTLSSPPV
Data set [13] deals with K562. The data set can be described thus: Antiproliferative activity against human K562 cells assessed as inhibition of cell growth incubated for 48 hrs by MTT assay. The class given is functional, cell-based. Particulars: K562, 48 h.
In data set [14] the test system is K562/Adr. Nature of the data set: Antiproliferative activity against human Adriamycin-resistant K562/Adr cells assessed as inhibition of cell growth incubated for 48 hrs by MTT assay. The class given is functional, cell-based.
Data set [15] relates to K562. Nature of the data set: Induction of apoptosis in human K562 cells assessed as necrotic cells at 10 uM incubated for 48 hrs by Annexin V-FITC/PI staining based flow cytometry analysis (Rvb= 0.09%). The class given is functional.
The target of data set [16] is Platelet-derived growth factor receptor alpha (Homo sapiens) (UniProt P16234). The data set can be described thus: Inhibition of recombinant human PDGFRalpha at 10 uM for 10 mins followed by substrate addition in presence of ATP and measured after 60 mins by HTRF assay. Particulars: time 70.0 min.
Data set [17] relates to K562. Nature of the data set: Induction of apoptosis in human K562 cells assessed as viable cells at 5 uM incubated for 48 hrs by Annexin V-FITC/PI staining based flow cytometry analysis (Rvb=80.89%). Format: functional. The settings on record: read-out: Activity.
Data set [18] has as its target Bcr/Abl fusion protein (Homo sapiens) (UniProt P00519+P11274). Nature of the data set: Inhibition of Bcr-Abl phosphorylation at Tyr245 residue in human K562 cells expressing wild type Bcr-Abl at 0.1 to 15 uM measured after 48 hrs by Western blot analysis. The class given is cell-based. Particulars: dose 0.1-15 µM, DDE = dose-dependent effect.
Data set [19] deals with K562. Nature of the data set: Induction of apoptosis in human K562 cells assessed as viable cells at 1 uM incubated for 48 hrs by Annexin V-FITC/PI staining based flow cytometry analysis (Rvb=80.89%). Format: functional. Particulars: read-out: Activity.
Data set [20] relates to EA.hy 926. The data set can be described thus: Cytotoxicity against human EA.hy 926 cells assessed as inhibition of cell growth upto 100 uM incubated for 48 hrs by MTT assay. The class given is toxicity, cell-based. The settings on record: ea.hy 926, 48 h.
Data set [21] has as its system K562. The data set can be described thus: Induction of cell cycle arrest in human K562 cells assessed as accumulation at G2/M phase at 1 to 10 uM incubated for 48 hrs by PI staining based flow cytometry (Rvb= 12.23%). Particulars: dose 1-10 µM. The class given is functional.
Data set [22] deals with K562. Nature of the data set: Induction of apoptosis in human K562 cells assessed as necrotic cells at 1 uM incubated for 48 hrs by Annexin V-FITC/PI staining based flow cytometry analysis (Rvb= 0.09%). The class given is functional.
Data set [23] has as its system BaF3. The data set can be described thus: Antiproliferative activity against mouse BaF3 cells expressing Bcr-Abl T315I mutant assessed as inhibition of cell growth incubated for 72 hrs by CellTiter-Glo luminescent assay. Format: functional, cell-based. The settings on record: BaF3, 72 h.
The subject of data set [24] is K562. Nature of the data set: Induction of cell cycle arrest in human K562 cells assessed as reduction in G0/G1 phase at 1 to 10 uM incubated for 48 hrs by PI staining based flow cytometry. The class given is functional. The settings on record: dose 1-10 µM.

Chain of Dual specificity tyrosine-phosphorylation-regulated kinase 1B (Homo sapiens) (Q9Y463 whole entry, looked up): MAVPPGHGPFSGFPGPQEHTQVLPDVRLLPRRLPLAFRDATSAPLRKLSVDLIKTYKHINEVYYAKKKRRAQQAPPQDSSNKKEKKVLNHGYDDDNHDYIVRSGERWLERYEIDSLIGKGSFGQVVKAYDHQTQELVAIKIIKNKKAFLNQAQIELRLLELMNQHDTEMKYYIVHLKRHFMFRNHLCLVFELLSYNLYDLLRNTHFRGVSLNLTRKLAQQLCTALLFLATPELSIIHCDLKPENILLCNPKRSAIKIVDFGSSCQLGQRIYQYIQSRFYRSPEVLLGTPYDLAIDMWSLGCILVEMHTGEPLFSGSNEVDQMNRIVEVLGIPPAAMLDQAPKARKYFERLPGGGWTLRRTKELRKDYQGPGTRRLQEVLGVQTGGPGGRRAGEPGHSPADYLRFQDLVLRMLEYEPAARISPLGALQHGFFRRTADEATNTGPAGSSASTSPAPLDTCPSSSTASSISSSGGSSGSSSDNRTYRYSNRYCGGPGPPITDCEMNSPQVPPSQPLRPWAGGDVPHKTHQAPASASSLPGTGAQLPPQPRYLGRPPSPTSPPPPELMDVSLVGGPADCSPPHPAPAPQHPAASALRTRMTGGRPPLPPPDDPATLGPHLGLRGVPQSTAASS
Chain of Dual specificity protein kinase CLK1 (Homo sapiens) (P49759 whole entry, looked up): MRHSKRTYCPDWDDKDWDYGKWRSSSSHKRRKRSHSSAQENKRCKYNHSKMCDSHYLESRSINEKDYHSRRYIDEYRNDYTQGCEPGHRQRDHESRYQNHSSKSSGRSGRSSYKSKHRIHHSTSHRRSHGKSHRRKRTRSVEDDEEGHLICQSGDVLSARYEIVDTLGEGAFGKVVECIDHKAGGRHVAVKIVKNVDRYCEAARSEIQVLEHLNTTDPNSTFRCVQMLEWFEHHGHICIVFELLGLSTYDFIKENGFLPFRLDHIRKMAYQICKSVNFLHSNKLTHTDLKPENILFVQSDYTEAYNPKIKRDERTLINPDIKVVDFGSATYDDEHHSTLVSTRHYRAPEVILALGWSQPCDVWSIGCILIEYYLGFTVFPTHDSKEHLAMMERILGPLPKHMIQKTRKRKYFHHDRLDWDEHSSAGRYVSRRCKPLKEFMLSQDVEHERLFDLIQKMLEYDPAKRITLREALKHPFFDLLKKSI
Chain of BDNF/NT-3 growth factors receptor (Homo sapiens) (Q16620 32-822 limits assumed): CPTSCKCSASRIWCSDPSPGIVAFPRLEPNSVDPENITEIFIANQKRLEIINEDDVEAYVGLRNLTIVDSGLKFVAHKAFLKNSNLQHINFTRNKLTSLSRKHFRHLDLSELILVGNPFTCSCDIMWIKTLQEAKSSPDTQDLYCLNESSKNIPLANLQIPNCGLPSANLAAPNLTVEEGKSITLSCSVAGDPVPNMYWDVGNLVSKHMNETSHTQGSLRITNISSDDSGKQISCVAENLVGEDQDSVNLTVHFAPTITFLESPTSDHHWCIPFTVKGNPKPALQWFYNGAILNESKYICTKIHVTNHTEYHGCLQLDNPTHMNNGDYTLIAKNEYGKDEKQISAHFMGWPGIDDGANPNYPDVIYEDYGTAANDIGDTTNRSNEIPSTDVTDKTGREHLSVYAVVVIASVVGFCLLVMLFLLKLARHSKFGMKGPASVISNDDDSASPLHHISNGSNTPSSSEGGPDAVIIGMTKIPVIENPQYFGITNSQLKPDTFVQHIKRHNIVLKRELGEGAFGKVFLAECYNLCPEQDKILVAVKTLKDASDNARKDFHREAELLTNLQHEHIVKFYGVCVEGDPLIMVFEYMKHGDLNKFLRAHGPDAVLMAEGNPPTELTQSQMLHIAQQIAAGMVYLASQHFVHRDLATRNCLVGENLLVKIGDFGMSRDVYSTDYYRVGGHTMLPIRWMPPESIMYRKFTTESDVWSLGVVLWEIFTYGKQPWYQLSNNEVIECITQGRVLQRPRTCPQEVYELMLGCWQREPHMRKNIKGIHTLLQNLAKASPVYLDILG

For orientation: inhibition means the relative decrease from the control value, in per cent. What is called IC50 is the concentration at which inhibition is half-maximal. Turning to `O=C(Nc1nc2ccc(-c3cn([C@@H]4CN[C@H](C(=O)Nc5ccc(Cl)cc5Cl)C4)nn3)nc2s1)C1CC1`, the inhibition at 30 µM in data set [1] stood at 87.6%. Besides, the Activity is 4.85% in [2]; 29.63% in data set [5]; 19.42% in [9]; “Non-Toxic” in data set [11]; 0.01% in data set [15]; “Non-Toxic” in data set [20]. The Activity in data set [21] is reported as 37.12%; in [22], 0.06%. Besides, in data set [3], the viability at 10 µM came out at 49.7%. Also, the inhibition in data set [4] amounted to 87.9%; in data set [6], 54.3%; in [7], 44.2%; in [8] it was 68.4%; in data set [10], 41.1%; in data set [12], 47.7%. Further, the inhibition in data set [16] is 87.9%; in data set [18], “Dde”. Besides, the IC50 in data set [13] amounted to 740 nM; in data set [14], 2440 nM; in [23], 672 nM. Further, the viability at 5 µM in data set [17] stood at 66.5%. The viability at 1 µM in data set [19] was 76.9%. In addition, the result in data set [24] was Active.

(Values after ChEMBL document CHEMBL5113400, “Design, synthesis, and biological evaluation of trizole-based heteroaromatic derivatives as Bcr-Abl kinase inhibitors” (Eur J Med Chem, 2022).)
